According to patent US20110269718A1, “PHARMACEUTICAL COMPOSITION CONTAINING MALATHION AND VOLATILE CYCLIC SILICONE” (priority 2010, published 2011):

Assays:
[1] = Stability of malathion compositions, degradation measured by HPLC; assay type: physicochemical
Experimental: The inventors measured malathion degradation by HPLC. The HPLC method was reverse-phase HPLC with UV detection (210 nm). The column used is an xTERRA C18 with a water/acetonitrile gradient and a flow rate of 0.6 ml/min. The malathion compositions tested comprise either malathion on its own, or a composition of 50% malathion and 50% isopropanol, or a composition of 50% malathion and 50% polydimethylcyclosiloxane, or a composition of 33% malathion with 33% isopropanol and 33% polydimethylcyclosiloxane. These compositions also contain excipients such as povidone as viscosity agent.
The stability of these compositions was assessed for 114 hours at 60° Celsius (Table 1).

lice = experiment: Pediculicidal activity of volatile silicone oil itself (stated, no method); assay type: in vivo, Pediculus humanus var capitis
nits = experiment: Nit-killing activity of volatile silicone oil itself (stated, no method); assay type: in vivo, Pediculus humanus var capitis

| SMILES | Malathion content (%) ([1]; T0) | Malathion content (%) ([1]; T 72 hrs 60° C.) | Malathion loss (%) ([1]; T 72 hrs 60° C.) | Malathion content (%) ([1]; T 114 hrs 60° C.) | Malathion loss (%) ([1]; T 114 hrs 60° C.) | pediculicidal activity (lice) | nit-killing activity (nits) |
| --- | --- | --- | --- | --- | --- | --- | --- |
| CCOC(=O)CC(SP(=S)(OC)OC)C(=O)OCC (stereo not shown) [Malathion alone, malathion] | 100.90% | 100.3% | (−0.1) % | 91% | (−9.8) % | – | – |
| C[Si]1(C)O[Si](C)(C)O[Si](C)(C)O[Si](C)(C)O[Si](C)(C)O1 [decamethylcyclopentasiloxane] | – | – | – | – | – | 100% | ~70% |
